Experimental data as given in patent US11993599B2, “Therapeutic compounds” (Genentech, Inc., priority 2021, dated 2024).

How the values were obtained:
BRM = BRM (Homo sapiens, UniProt P51531); test: Immunofluorescence assay for BRM degradation in SW1573 cells; type: cell-based; set-up: treated overnight at 4° C. with either BRM primary antibody (Cell signaling Cat #11966) or BRG primary antibody; endogenous in cells; host or cells: SW1573; conditions: 20 hours incubation; for DC50: immunofluorescence mean nuclear signal, read-out: BRM IF Degradation IC50; for BRM IF Degradation Sinf (%): normalized to a known degrader control
How it was run: (§1)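 Cells seeded one day before dosing, exposed to compounds for 20 hours, then fixed, permeabilized, blocked and stained overnight at 4 °C with anti-BRM or anti-BRG1 antibody. Nuclear fluorescence intensity per cell, normalized to a degrader control, gave concentration-response curves fitted with a floating maximum.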

BRG1 = biological target: T1, BRG1 (Homo sapiens, UniProt P51532); test: Immunofluorescence assay for BRG1 degradation in SW1573 cells; type: cell-based; conditions: 20 hours incubation; for DC50: immunofluorescence mean nuclear signal, read-out: BRG1 IF Degradation IC50; for Dmax: SW1573, 20 h, normalized to a known degrader control, read-out: BRG1 IF Degradation Sinf (%)
T1 construct: either BRM primary antibody (Cell signaling Cat #11966) or BRG primary antibody (Abcam, ab 110641); endogenous in cells; host or cells: SW1573
How it was run: as §1

Sequence of BRM (P51531 whole entry): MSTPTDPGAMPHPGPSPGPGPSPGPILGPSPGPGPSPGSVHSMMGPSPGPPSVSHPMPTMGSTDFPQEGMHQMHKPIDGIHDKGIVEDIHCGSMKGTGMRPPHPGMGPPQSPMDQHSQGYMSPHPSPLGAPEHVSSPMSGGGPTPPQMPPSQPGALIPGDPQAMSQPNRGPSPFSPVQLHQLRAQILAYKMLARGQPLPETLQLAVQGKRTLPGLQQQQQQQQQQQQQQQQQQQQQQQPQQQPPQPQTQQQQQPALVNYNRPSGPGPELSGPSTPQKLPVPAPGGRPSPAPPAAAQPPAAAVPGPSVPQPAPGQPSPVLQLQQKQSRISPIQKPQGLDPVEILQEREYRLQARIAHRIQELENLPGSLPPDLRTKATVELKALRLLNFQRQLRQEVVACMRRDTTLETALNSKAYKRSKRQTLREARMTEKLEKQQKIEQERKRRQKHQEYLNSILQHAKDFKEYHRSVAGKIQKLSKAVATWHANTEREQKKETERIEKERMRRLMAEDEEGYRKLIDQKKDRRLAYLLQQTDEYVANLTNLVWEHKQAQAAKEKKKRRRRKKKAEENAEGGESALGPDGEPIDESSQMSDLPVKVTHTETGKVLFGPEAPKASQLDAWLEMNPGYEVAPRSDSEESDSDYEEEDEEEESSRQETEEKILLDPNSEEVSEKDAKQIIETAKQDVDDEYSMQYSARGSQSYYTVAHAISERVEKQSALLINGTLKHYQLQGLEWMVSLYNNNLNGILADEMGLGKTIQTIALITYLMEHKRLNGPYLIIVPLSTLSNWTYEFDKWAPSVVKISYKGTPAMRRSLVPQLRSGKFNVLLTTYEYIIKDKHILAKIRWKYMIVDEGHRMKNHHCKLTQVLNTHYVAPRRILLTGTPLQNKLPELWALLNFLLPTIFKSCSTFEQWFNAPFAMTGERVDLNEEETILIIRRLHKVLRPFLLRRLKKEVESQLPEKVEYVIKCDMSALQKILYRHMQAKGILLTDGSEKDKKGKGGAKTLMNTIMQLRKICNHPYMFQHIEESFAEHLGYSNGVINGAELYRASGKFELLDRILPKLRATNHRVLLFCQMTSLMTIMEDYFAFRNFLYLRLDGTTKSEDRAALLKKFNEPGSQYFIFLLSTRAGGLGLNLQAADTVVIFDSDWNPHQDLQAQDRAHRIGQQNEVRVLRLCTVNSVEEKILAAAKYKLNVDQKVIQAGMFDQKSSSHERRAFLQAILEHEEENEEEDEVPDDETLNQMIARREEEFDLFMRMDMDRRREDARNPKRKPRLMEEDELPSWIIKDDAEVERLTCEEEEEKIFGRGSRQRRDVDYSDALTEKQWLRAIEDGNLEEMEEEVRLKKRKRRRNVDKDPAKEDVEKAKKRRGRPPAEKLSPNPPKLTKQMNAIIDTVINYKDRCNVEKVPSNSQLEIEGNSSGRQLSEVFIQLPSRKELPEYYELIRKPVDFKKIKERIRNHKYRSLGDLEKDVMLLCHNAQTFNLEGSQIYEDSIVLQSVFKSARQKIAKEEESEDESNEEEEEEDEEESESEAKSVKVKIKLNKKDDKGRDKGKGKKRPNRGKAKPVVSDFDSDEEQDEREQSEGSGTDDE
T1 sequence (P51532 whole entry): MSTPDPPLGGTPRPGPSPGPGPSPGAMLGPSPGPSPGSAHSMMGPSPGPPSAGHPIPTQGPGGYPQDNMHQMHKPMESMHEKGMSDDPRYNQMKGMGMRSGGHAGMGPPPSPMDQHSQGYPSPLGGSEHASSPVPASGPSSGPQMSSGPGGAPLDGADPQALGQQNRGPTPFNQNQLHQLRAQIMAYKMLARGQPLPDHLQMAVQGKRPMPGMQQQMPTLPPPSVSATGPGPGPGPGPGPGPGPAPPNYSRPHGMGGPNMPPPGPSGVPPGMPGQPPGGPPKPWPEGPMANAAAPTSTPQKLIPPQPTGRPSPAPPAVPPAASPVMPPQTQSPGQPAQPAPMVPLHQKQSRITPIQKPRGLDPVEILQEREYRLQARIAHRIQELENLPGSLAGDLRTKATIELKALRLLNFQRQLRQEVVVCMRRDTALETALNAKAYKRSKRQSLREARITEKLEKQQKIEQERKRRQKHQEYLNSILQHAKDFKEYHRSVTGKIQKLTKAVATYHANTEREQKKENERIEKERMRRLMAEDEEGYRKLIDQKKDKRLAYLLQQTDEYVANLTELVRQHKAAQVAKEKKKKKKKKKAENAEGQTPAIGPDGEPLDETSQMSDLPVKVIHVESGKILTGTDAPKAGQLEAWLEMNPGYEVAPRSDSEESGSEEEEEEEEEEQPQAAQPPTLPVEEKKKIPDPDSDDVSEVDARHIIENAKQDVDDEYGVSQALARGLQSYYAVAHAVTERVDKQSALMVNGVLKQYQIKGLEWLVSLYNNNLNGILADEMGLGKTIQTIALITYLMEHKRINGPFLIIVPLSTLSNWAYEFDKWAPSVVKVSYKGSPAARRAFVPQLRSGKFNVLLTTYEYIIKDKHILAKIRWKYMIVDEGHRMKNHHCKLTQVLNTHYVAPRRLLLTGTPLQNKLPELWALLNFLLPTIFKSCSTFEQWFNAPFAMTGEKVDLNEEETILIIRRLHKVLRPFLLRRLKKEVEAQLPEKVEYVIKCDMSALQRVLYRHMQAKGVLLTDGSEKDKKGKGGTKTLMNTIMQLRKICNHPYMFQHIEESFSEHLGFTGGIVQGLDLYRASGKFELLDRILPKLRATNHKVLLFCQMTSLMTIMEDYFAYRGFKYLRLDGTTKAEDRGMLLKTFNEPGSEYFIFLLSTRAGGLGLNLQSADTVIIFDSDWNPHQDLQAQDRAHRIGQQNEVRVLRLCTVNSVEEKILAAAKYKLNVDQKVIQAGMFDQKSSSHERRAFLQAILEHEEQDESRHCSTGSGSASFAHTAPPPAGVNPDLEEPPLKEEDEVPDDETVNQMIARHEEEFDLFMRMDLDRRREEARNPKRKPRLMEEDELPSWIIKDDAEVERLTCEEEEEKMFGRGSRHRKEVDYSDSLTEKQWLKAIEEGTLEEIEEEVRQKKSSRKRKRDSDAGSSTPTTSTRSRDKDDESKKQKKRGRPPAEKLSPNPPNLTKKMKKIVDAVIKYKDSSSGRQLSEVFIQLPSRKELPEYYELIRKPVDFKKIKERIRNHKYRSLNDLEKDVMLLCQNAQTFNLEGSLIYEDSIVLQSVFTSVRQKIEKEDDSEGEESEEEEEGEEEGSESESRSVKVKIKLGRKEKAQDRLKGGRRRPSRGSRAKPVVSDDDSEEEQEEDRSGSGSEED

Structure (SMILES)	DC50 (BRM)	BRM IF Degradation Sinf (%) (BRM)	DC50 (BRG1)	Dmax (BRG1)
Nc1nnc(-c2ccccc2O)cc1N1CC2CCC(C1)N2c1ccnc(C#CCN2CC3CCC3C2)c1 (stereo not shown) [Compound 91, 2-[6-amino-5-[8-[2-[3-(3-azabicyclo[3.2.0]heptan-3-yl)prop-1-ynyl]-4-pyridyl]-3,8-diazabicyclo[3.2.1]octan-3-yl]pyridazin-3-yl]phenol]	< 10 nM	E (E indicates −30%-−70%)	< 10 nM	30 to 70%
Nc1nnc(-c2ccccc2O)cc1N1CC2CCC(C1)N2c1ccnc(C#CCN2CC3CCOCC3C2)c1 (stereo not shown) [Compound 92, 2-[5-[8-[2-[3-(3,3a,4,6,7,7a-hexahydro-1H-pyrano[3,4-c]pyrrol-2-yl)prop-1-ynyl]-4-pyridyl]-3,8-diazabicyclo[3.2.1]octan-3-yl]-6-amino-pyridazin-3-yl]phenol]	< 10 nM	F (F indicates −71%-−120%)	< 10 nM	30 to 70%
Nc1nnc(-c2ccccc2O)cc1N1CC2CCC(C1)N2c1ccnc(C#CCN2CC3CCC(C3)C2)c1 [Compound 93, 2-[6-amino-5-[8-[2-[3-(3-azabicyclo[3.2.1]octan-3-yl)prop-1-ynyl]-4-pyridyl]-3,8-diazabicyclo[3.2.1]octan-3-yl]pyridazin-3-yl]phenol]	< 10 nM	E (E indicates −30%-−70%)	> 100 nM	–
Nc1nnc(-c2ccccc2O)cc1N1CC2CCC(C1)N2c1ccnc(C#CCN2CCC3CCCC32)c1 (stereo not shown) [Compound 94, 2-[5-[8-[2-[3-(3,3a,4,5,6,6a-hexahydro-2H-cyelopenta[b]pyrrol-1-yl)prop-1-ynyl]-4-pyridyl]-3,8-diazabicyclo[3.2.1]octan-3-yl]-6-amino-pyridazin-3-yl]phenol]	< 10 nM	E (E indicates −30%-−70%)	< 10 nM	30 to 70%
Nc1nnc(-c2ccccc2O)cc1N1CC2CCC(C1)N2c1ccnc(C#CCN2CC(C(F)F)C2)c1 [Compound 95, 2-[6-amino-5-[8-[2-[3-[3-(difluoromethyl)azetidin-1-yl]prop-1-ynyl]-4-pyridyl]-3,8-diazabicyclo[3.2.1]octan-3-yl]pyridazin-3-yl]phenol]	< 10 nM	E (E indicates −30%-−70%)	< 10 nM	30 to 70%
CNC(=O)C1CCCCN1CC#Cc1cc(N2C3CCC2CN(c2cc(-c4ccccc4O)nnc2N)C3)ccn1 (stereo not shown) [Compound 96, 1-[3-[4-[3-[3-amino-6-(2-hydroxyphenyl)pyridazin-4-yl]-3,8-diazabicyclo[3.2.1]octan-8-yl]-2-pyridyl]prop-2-ynyl]-N-methyl-piperidine-2-carboxamide]	> 100 nM	E (E indicates −30%-−70%)	10 to 100 nM	0 to 30%
Nc1nnc(-c2ccccc2O)cc1N1CC2CCC(C1)N2c1ccnc(C#CCN2CC3(CC(F)C3)C2)c1 [Compound 97, 2-[6-amino-5-[8-[2-[3-(6-fluoro-2-azaspiro[3.3]heptan-2-yl)prop-1-ynyl]-4-pyridyl]-3,8-diazabicyclo[3.2.1]octan-3-yl]pyridazin-3-yl]phenol]	< 10 nM	F (F indicates −71%-−120%)	< 10 nM	30 to 70%
Nc1nnc(-c2ccccc2O)cc1N1CC2CCC(C1)N2c1ccnc(C#CCN2CC3COC(C3)C2)c1 (stereo not shown) [Compound 98, 2-[6-amino-5-[8-[2-[3-(6-oxa-3-azabicyclo[3.2.1]octan-3-yl)prop-1-ynyl]-4-pyridyl]-3,8-diazabicyclo[3.2.1]octan-3-yl]pyridazin-3-yl]phenol]	10 to 100 nM	E (E indicates −30%-−70%)	> 100 nM	–
Nc1nnc(-c2ccccc2O)cc1N1CC2CCC(C1)N2c1ccnc(C#CCN2CCCC3(CC3)C2)c1 [Compound 99, 2-[6-amino-5-[8-[2-[3-(5-azaspiro[2.5]octan-5-yl)prop-1-ynyl]-4-pyridyl]-3,8-diazabicyclo[3.2.1]octan-3-yl]pyridazin-3-yl]phenol]	< 10 nM	E (E indicates −30%-−70%)	< 10 nM	30 to 70%
Nc1nnc(-c2ccccc2O)cc1N1CC2CCC(C1)N2c1ccnc(C#CCN2CCC23CCCOC3)c1 (stereo not shown) [Compound 100, 2-[6-amino-5-[8-[2-[3-(8-oxa-1-azaspiro[3.5]nonan-1-yl)prop-1-ynyl]-4-pyridyl]-3,8-diazabicyclo[3.2.1]octan-3-yl]pyridazin-3-yl]phenol]	< 10 nM	E (E indicates −30%-−70%)	< 10 nM	30 to 70%
Nc1nnc(-c2ccccc2O)cc1N1CC2CCC(C1)N2c1ccnc(C#CCN2CC3CCCC(C2)O3)c1 [Compound 101, 2-[6-amino-5-[8-[2-[3-(9-oxa-3-azabicyclo[3.3.1]nonan-3-yl)prop-l-ynyl]-4-pyridyl]-3,8-diazabicyclo[3.2.1]octan-3-yl]pyridazin-3-yl]phenol]	10 to 100 nM	E (E indicates −30%-−70%)	> 100 nM	–
Nc1nnc(-c2ccccc2O)cc1N1CC2CCC(C1)N2c1ccnc(C#CCN2CCC[C@@H]3CC[C@@H]32)c1 [Compound 102, 2-[6-amino-5-[8-[2-[3-[(1S,6R)-2-azabicyclo[4.2.0]octan-2-yl]prop-1-ynyl]-4-pyridyl]-3,8-diazabicyclo[3.2.1]octan-3-yl]pyridazin-3-yl]phenol]	< 10 nM	E (E indicates −30%-−70%)	< 10 nM	30 to 70%
Nc1nnc(-c2ccccc2O)cc1N1CC2CCC(C1)N2c1ccnc(C#CCN2C3CCC(C3)C2CO)c1 (stereo not shown) [Compound 103, 2-[6-amino-5-[8-[2-[3-[3-(hydroxymethyl)-2-azabicyclo[2.2.1]heptan-2-yl]prop-1-ynyl]-4-pyridyl]-3,8-diazabicyclo[3.2.1]octan-3-yl]pyridazin-3-yl]phenol]	< 10 nM	E (E indicates −30%-−70%)	> 100 nM	30 to 70%
Nc1nnc(-c2ccccc2O)cc1N1CC2CCC(C1)N2c1ccnc(C#CCN2CCC3CC2CO3)c1 (stereo not shown) [Compound 104, 2-[6-amino-5-[8-[2-[3-(6-oxa-2-azabicyclo[3.2.1]octan-2-yl)prop-1-ynyl]-4-pyridyl]-3,8-diazabicyclo[3.2.1]octan-3-yl]pyridazin-3-yl]phenol]	< 10 nM	E (E indicates −30%-−70%)	< 10 nM	0 to 30%
Nc1nnc(-c2ccccc2O)cc1N1CC2CCC(C1)N2c1ccnc(C#CCN2CC3CC3(O)C2)c1 (stereo not shown) [Compound 105, 3-(3-(4-(3-(3-amino-6-(2-hydroxyphenyl)pyridazin-4-yl)-3,8-diazabicyclo[3.2.1]octan-8-yl)pyridin-2-yl)prop-2-yn-1-yl)-3-azabicyclo[3.1.0]hexan-1-ol]	10 to 100 nM	E (E indicates −30%-−70%)	10 to 100 nM	0 to 30%
Nc1nnc(-c2ccccc2O)cc1N1CC2CCC(C1)N2c1ccnc(C#CCN2CCCC23CCC3)c1 [Compound 106, 2-[6-amino-5-[8-[2-[3-(5-azaspiro[3.4]octan-5-yl)prop-1-ynyl]-4-pyridyl]-3,8-diazabicyclo[3.2.1]octan-3-yl]pyridazin-3-yl]phenol]	< 10 nM	E (E indicates −30%-−70%)	< 10 nM	30 to 70%
